Measurements as given in patent publication US4272528A, “Phosphonoacetyl aminoacids” (Abbott Laboratories, priority 1980, dated 1981).
Where two headings read alike, the source gives them in different places.

Target: herpes DNA polymerase (Human herpesvirus 1, UniProt P04293)
Assay: herpes DNA polymerase activity assay
Type: biochemical
Conditions: for % Inhibition at Drug Level 1.666 μg/ml / % Inhibition at Drug Level 16.6 μg/ml / % Inhibition at Drug Level 166 μg/ml: fixed dilution
Protocol: The above compounds were tested for herpes DNA polymerase activity in the manner shown in Example 9 of U.S. Pat. No. 4,138,432. The assay, using fixed dilutions of the above compounds, produced the following results:
When variable solution concentrations were used, the results were as follows: […]

[1] = variable solution concentrations, read-out: ID50 (the source's name) (converted)

Sequence of herpes DNA polymerase (P04293 whole entry): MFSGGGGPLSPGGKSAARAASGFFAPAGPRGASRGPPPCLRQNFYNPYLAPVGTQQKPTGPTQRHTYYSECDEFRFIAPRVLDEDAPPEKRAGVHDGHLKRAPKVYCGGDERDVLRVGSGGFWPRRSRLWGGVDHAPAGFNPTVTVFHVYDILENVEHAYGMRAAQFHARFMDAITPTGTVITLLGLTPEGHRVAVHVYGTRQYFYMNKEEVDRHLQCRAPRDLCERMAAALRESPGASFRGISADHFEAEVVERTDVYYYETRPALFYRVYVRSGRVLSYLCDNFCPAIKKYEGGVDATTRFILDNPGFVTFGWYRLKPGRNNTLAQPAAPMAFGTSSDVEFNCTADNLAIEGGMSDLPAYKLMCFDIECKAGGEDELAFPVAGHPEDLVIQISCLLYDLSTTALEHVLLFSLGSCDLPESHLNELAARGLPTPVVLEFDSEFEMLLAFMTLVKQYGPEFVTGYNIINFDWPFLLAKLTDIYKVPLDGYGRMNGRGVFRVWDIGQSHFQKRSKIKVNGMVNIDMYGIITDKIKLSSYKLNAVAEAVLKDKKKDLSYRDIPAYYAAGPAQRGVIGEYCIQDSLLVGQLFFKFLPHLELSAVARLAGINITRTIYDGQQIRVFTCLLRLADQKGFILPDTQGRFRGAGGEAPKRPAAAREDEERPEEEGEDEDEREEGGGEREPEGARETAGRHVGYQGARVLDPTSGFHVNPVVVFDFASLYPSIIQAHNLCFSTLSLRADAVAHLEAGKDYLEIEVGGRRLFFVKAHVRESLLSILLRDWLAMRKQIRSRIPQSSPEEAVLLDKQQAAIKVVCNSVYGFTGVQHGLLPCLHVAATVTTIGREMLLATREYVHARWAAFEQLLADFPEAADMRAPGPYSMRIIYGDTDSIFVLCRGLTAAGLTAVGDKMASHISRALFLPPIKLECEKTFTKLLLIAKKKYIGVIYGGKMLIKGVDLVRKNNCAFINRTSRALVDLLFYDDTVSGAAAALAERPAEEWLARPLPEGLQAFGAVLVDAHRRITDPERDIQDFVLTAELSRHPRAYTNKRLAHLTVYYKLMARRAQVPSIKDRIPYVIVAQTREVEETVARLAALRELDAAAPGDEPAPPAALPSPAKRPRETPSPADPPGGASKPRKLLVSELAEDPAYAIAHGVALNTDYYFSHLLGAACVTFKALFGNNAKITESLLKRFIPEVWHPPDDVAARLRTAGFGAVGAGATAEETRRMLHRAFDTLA

Row | Structure (SMILES) | IC50 | % Inhibition at Drug Level 1.666 μg/ml | % Inhibition at Drug Level 16.6 μg/ml | % Inhibition at Drug Level 166 μg/ml | IC50 [1]
1 | O=C(O)CNC(=O)CP(=O)(O)O [Example 1, PAA-Gly] | 28.9 µM | 33% | 56% | 72% | –
2 | C[C@@H](NC(=O)CP(=O)(O)O)C(=O)O [Example 2 (D), PAA-D-Ala] | 31.3 µM | 19% | 68% | 87% | –
3 | C[C@H](NC(=O)CP(=O)(O)O)C(=O)O [Example 2 (L), PAA-L-Ala] | – | – | – | 59% | –
4 | O=C(O)CCNC(=O)CP(=O)(O)O [Example 3, PAA-β-Ala] | 50.2 µM | 15% | 59% | 88% | –
5 | O=C(O)CC(NC(=O)CNC(=O)CP(=O)(O)O)C(=O)O (stereo not shown) [Example 4, PAA-Gly-Asp] | – | 39% | 77% | 93% | 10.6 µM
6 | N=C(N)NCCCC(NC(=O)CP(=O)(O)O)C(=O)O (stereo not shown) [PAA-Arg, reference compound] | – | – | – | – | 203 µM
7 | O=C(O)C[C@H](NC(=O)CP(=O)(O)O)C(=O)O [PAA-L-Asp, reference compound] | – | – | – | – | 141 µM
8 | O=C(O)CP(=O)(O)O [PAA-Na, reference compound] | – | 82% | 98% | 99% | –
